According to patent publication EP2649091B1, “IMMUNE RESTRICTED PEPTIDES WITH INCREASED EFFICACY” (Stichting Het Nederlands Kanker Instituut, priority 2010, dated 2012):
ALG = not defined here; PHG = not defined here

How the values were obtained:
[1] = system: SVYDFFVWL (TRP-2 180-188) reactive T cells; test: T cell activation time course assay, IFNγ production (FACS), TRP-2 epitope; conditions: for % CD8+ T cells producing IFN-γ peptide concentrations in picomolar 24H 0.5 / Geometric mean IFN-γ in arbitrary fluorescence units peptide concentrations in picomolar 24H 0.5 / % CD8+ T cells producing IFN-γ peptide concentrations in picomolar 48H 0.5 / Geometric mean IFN-γ in arbitrary fluorescence units peptide concentrations in picomolar 48H 0.5: peptide 0.5 pM; for % CD8+ T cells producing IFN-γ peptide concentrations in picomolar 24H 50 / Geometric mean IFN-γ in arbitrary fluorescence units peptide concentrations in picomolar 24H 50 / % CD8+ T cells producing IFN-γ peptide concentrations in picomolar 48H 50 / Geometric mean IFN-γ in arbitrary fluorescence units peptide concentrations in picomolar 48H 50: peptide 50 pM; for % CD8+ T cells producing IFN-γ peptide concentrations in picomolar 24H 5·10^3 / Geometric mean IFN-γ in arbitrary fluorescence units peptide concentrations in picomolar 24H 5·10^3 / % CD8+ T cells producing IFN-γ peptide concentrations in picomolar 48H 5·10^3 / Geometric mean IFN-γ in arbitrary fluorescence units peptide concentrations in picomolar 48H 5·10^3: peptide 5·10^3 pM
HLA-A0201 = HLA-A0201 (Homo sapiens, UniProt P04439, D140Y/D185E/D98H/E176V/E277Q/G131W/G231S/I119V/I121R/I166T/I218V/L300P/L318F/N151K/N90K/P208A/P217A/Q86G/Q94H/R138H/R169H/T345S); assay type: binding
[2] = system: HLA-A2::Mart-1(26-35) reactive T cells stimulated by T2 cells; test: T cell activation time course assay, IFNγ production (FACS), Mart-1 epitope; assay type: cell-based; conditions: for % CD8+ T cells producing IFN-γ 0H / Geometric mean IFN-γ in arbitrary fluorescence units 0H: time point 0H (basal); for % CD8+ T cells producing IFN-γ 2H / Geometric mean IFN-γ in arbitrary fluorescence units 2H: time point 2H; for % CD8+ T cells producing IFN-γ 4H / Geometric mean IFN-γ in arbitrary fluorescence units 4H: time point 4H; for % CD8+ T cells producing IFN-γ 24H / Geometric mean IFN-γ in arbitrary fluorescence units 24H: time point 24H; for % CD8+ T cells producing IFN-γ 24H / Geometric mean IFN-γ in arbitrary fluorescence units 24H / % CD8+ T cells producing IFN-γ 48H / Geometric mean IFN-γ in arbitrary fluorescence units 48H: free peptide washed away; for % CD8+ T cells producing IFN-γ 48H / Geometric mean IFN-γ in arbitrary fluorescence units 48H: time point 48H

Row | Substance | % CD8+ T cells producing IFN-γ peptide concentrations in picomolar 24H 0.5 [1] [%] | Geometric mean IFN-γ in arbitrary fluorescence units peptide concentrations in picomolar 24H 0.5 [1] | % CD8+ T cells producing IFN-γ peptide concentrations in picomolar 24H 50 [1] [%] | Geometric mean IFN-γ in arbitrary fluorescence units peptide concentrations in picomolar 24H 50 [1] | % CD8+ T cells producing IFN-γ peptide concentrations in picomolar 24H 5·10^3 [1] [%] | Geometric mean IFN-γ in arbitrary fluorescence units peptide concentrations in picomolar 24H 5·10^3 [1] | % CD8+ T cells producing IFN-γ peptide concentrations in picomolar 48H 0.5 [1] [%] | Geometric mean IFN-γ in arbitrary fluorescence units peptide concentrations in picomolar 48H 0.5 [1] | % CD8+ T cells producing IFN-γ peptide concentrations in picomolar 48H 50 [1] [%] | Geometric mean IFN-γ in arbitrary fluorescence units peptide concentrations in picomolar 48H 50 [1] | % CD8+ T cells producing IFN-γ peptide concentrations in picomolar 48H 5·10^3 [1] [%] | Geometric mean IFN-γ in arbitrary fluorescence units peptide concentrations in picomolar 48H 5·10^3 [1] | % inhibition at T=4H and T=24H FP 4h (HLA-A0201) [%] | % inhibition at T=4H and T=24H FP 24h (HLA-A0201) [%] | IC50 Ratio (HLA-A0201) | also measured
1 | [CSME][2-AOC]YDFFVW[PRG] | 0 | 67 arbitrary fluorescence units | 1 | 73 arbitrary fluorescence units | 7 | 84 arbitrary fluorescence units | 0 | 67 arbitrary fluorescence units | 0 | 6 arbitrary fluorescence units | 0 | 72 arbitrary fluorescence units | 98 | 89 | – | –
2 | [CSME][CpALA]YDFFVW[PRG] | 1 | 69 arbitrary fluorescence units | 5 | 73 arbitrary fluorescence units | 27 | 147 arbitrary fluorescence units | 0 | 58 arbitrary fluorescence units | 1 | 68 arbitrary fluorescence units | 14 | 105 arbitrary fluorescence units | 85 | 83 | – | –
3 | [CSME][NVA]AGIGILT[PRG] | – | – | – | – | – | – | – | – | – | – | – | – | 63 | 60 | 2.8 | –
4 | [CSME][NVA]YDFFVW[PRG] | 0 | 67 arbitrary fluorescence units | 6 | 80 arbitrary fluorescence units | 26 | 175 arbitrary fluorescence units | 1 | 93 arbitrary fluorescence units | 1 | 67 arbitrary fluorescence units | 26 | 130 arbitrary fluorescence units | 78 | 78 | – | –
5 | [PHG]AAGIGI[4-FPHE]T[NLE] | – | – | – | – | – | – | – | – | – | – | – | – | 63 | 66 | 6.8 | –
6 | [PHG][NVA]AGIGILT[ALG] ({PHG-NVA}-AGIGILT-{ALG}; reading uncertain; also: printed as [PHG][NVA]AGIGILT[ALG]) | – | – | – | – | – | – | – | – | – | – | – | – | 65 | 64 | 18.9 | –
7 | [am-phg]AAGIGI[4-FPHE]TV | – | – | – | – | – | – | – | – | – | – | – | – | 62 | 59 | 2.1 | –
8 | [am-phg]LAGIGILT[PRG] | – | – | – | – | – | – | – | – | – | – | – | – | – | – | – | % CD8+ T cells producing IFN-γ 0H ([2]; peptide 0.5 pM): 0%; Geometric mean IFN-γ in arbitrary fluorescence units 0H ([2]; peptide 0.5 pM): 94 arbitrary fluorescence units; % CD8+ T cells producing IFN-γ 2H ([2]; peptide 0.5 pM): 27%; Geometric mean IFN-γ in arbitrary fluorescence units 2H ([2]; peptide 0.5 pM): 214 arbitrary fluorescence units; % CD8+ T cells producing IFN-γ 4H ([2]; peptide 0.5 pM): 29%; Geometric mean IFN-γ in arbitrary fluorescence units 4H ([2]; peptide 0.5 pM): 345 arbitrary fluorescence units; % CD8+ T cells producing IFN-γ 24H ([2]; peptide 0.5 pM): 15%; Geometric mean IFN-γ in arbitrary fluorescence units 24H ([2]; peptide 0.5 pM): 159 arbitrary fluorescence units; % CD8+ T cells producing IFN-γ 48H ([2]; peptide 0.5 pM): 3%; Geometric mean IFN-γ in arbitrary fluorescence units 48H ([2]; peptide 0.5 pM): 103 arbitrary fluorescence units; % CD8+ T cells producing IFN-γ 0H ([2]; peptide 50 pM): 0%; Geometric mean IFN-γ in arbitrary fluorescence units 0H ([2]; peptide 50 pM): 105 arbitrary fluorescence units; % CD8+ T cells producing IFN-γ 2H ([2]; peptide 50 pM): 22%; Geometric mean IFN-γ in arbitrary fluorescence units 2H ([2]; peptide 50 pM): 249 arbitrary fluorescence units; % CD8+ T cells producing IFN-γ 4H ([2]; peptide 50 pM): 31%; Geometric mean IFN-γ in arbitrary fluorescence units 4H ([2]; peptide 50 pM): 480 arbitrary fluorescence units; % CD8+ T cells producing IFN-γ 24H ([2]; peptide 50 pM): 28%; Geometric mean IFN-γ in arbitrary fluorescence units 24H ([2]; peptide 50 pM): 342 arbitrary fluorescence units; % CD8+ T cells producing IFN-γ 48H ([2]; peptide 50 pM): 18%; Geometric mean IFN-γ in arbitrary fluorescence units 48H ([2]; peptide 50 pM): 215 arbitrary fluorescence units
